According to PMC7215599, “Synthesis, Antitumor Evaluation, Molecular Modeling and Quantitative Structure–Activity Relationship (QSAR) of Novel 2-[(4-Amino-6-N-substituted-1,3,5-triazin-2-yl)methylthio]-4-chloro-5-methyl-N-(1H-benzo[d]imidazol-2(3H)-ylidene)Benzenesulfonamides” (International Journal of Molecular Sciences, 2020):

Columns and labels:
[1] = tested on: HeLa (cervical cancer) cell line; assay: MTT cell viability assay, HeLa; assay type: cell-based, human; details: 72 h, MTT, 1-100 µM, mean ± SD
Description: (§1) Compounds 6–49 were evaluated in vitro for their effects on the viability of the three human cancer cell lines: HCT-116 (colon cancer), MCF-7 (breast cancer) and HeLa (cervical cancer) as well as the non-cancerous keratinocyte cell line (HaCaT). The concentration required for 50% inhibition of cell viability IC50 was calculated and compared with the reference drug cisplatin, the results are shown in Table 1.
(§2) Cell lines: colon cancer (HCT-116), breast cancer (MCF-7), cervical cancer (HeLa), the human keratinocyte cell line (HaCaT); NT—not tested; IC50 was measured at concentrations 1, 10, 25, 50, and 100 µM. IC50 values are expressed as the mean ± SD of at last three independent experiments.
(§3) All chemicals, if not stated otherwise, were obtained from Sigma–Aldrich (St. Louis, MO, USA). The HCT-116 cell lines was purchased from ATCC (ATCC-No: CCL-247), while the MCF-7, HeLa and HaCaT cell lines were purchased from Cell Lines Services (Eppelheim, Germany). Cells were cultured in Dulbecco’s modified Eagle’s medium (DMEM) supplemented with 10% fetal bovine serum, 2 mM glutamine, 100 units/mL penicillin, and 100 µg/mL streptomycin. Cultures were maintained in a humidified atmosphere with 5% carbon dioxide at 37 °C in an incubator (Heraceus, HeraCell).
(§4) Cell viability was examined using the MTT (3-(4,5-dimethylthiazol-2-yl)-2,5-diphenyltetrazolium bromide) assay. Cells were seeded in 96-well plates at a density of 5 × 10^3 cells/well and treated for 72 h with the tested compounds in the concentration range of 1–100 µM (1, 10, 25, 50 and 100 µM). Then, MTT (0.5 mg/mL) was added to the medium and cells were further incubated for 2 h at 37 °C. In the next stage, cells were lysed with DMSO and the absorbance of the formazan solution was measured at 550 nm with a plate reader (1420 multilabel counter, Victor, Jügesheim, Germany). The experiment was performed in triplicate. Values are expressed as the mean ± SD of at least three independent experiments. Cisplatin was used as a positive control.

[2] = tested on: HCT-116 (colon cancer) cell line; assay: MTT cell viability assay, HCT-116; assay type: cell-based, human; details: for IC50: MTT, 72 h, 1-100 µM, mean ± SD
Description: as §1, §2, §3, §4

[3] = tested on: HCT-116, MCF-7 and HeLa cell lines; assay: MTT cell viability assay, all tested cancer cell lines taken together; assay type: cell-based; details: Homo sapiens; range over HCT-116, MCF-7 and HeLa; read-out: IC50 toward all of the tested cell lines (range over the lines)
Description: as §1, §2, §3, §4

[4] = tested on: MCF-7 (breast cancer) cell line; assay: MTT cell viability assay, MCF-7; assay type: cell-based, human; details: for IC50: MTT, 72 h, 1-100 µM, mean ± SD
Description: as §1, §2, §3, §4

[5] = tested on: HaCaT (non-cancerous keratinocyte cell line); assay: MTT cell viability assay, HaCaT; assay type: cell-based; details: Homo sapiens, 72 h, 1-100 µM, mean ± SD, non-cancerous cells
Description: as §1, §2, §3, §4

Cc1cc(S(=O)(=O)N=c2[nH]c3ccccc3[nH]2)c(SCc2nc(N)nc(N3CCN(C)CC3)n2)cc1Cl [Compound 18, 2-{[4-Amino-6-(4-methylpiperazin-1-yl)-1,3,5-triazin-2-yl]metylthio}-N-(1H-benzo[d]imidazol-2(3H)-ylidene)-4-chloro-5-methylbenzenesulfonamide]
IC50 ([1]; Homo sapiens, HeLa): 61 ± 2 µM | IC50 ([2]; Homo sapiens, HCT-116, 72 h): 42 ± 2 µM | IC50 [3]: 42 to 82 µM | IC50 ([4]; Homo sapiens, MCF7, 72 h): > 100 µM | IC50 [4]: 82 ± 3 µM | IC50 [5]: 84 ± 3 µM

Cc1cc(S(=O)(=O)N=c2[nH]c3ccc(Cl)cc3[nH]2)c(SCc2nc(N)nc(N3CCN(c4ccc(F)cc4)CC3)n2)cc1Cl [Compound 46, 2-[{4-Amino-6-[4-(4-fluorophenyl)piperazin-1-yl]-1,3,5-triazin-2-yl}metylthio]-4-chloro-N-(5-chloro-1H-benzo[d]imidazol-2(3H)-ylidene)-5-methylbenzenesulfonamide]
IC50 ([1]; Homo sapiens, HeLa): 11 to 18 µM | IC50 [1]: 18 ± 1 µM | IC50 ([2]; Homo sapiens, HCT-116, 72 h): 7 to 11 µM | IC50 [2]: 7 ± 0.1 µM | selectivity ratio HaCaT/HCT-116 ([2]; ratio of IC50 values): 4 | IC50 [3]: 7 to 19 µM | IC50 ([4]; Homo sapiens, MCF7, 72 h): 17 to 19 µM | IC50 [4]: 15 ± 1 µM | selectivity ratio HaCaT/MCF-7 ([4]; ratio of IC50 values): 2 | IC50 [5]: 28 ± 1 µM

Cc1cc(S(=O)(=O)N=c2[nH]c3ccccc3[nH]2)c(SCc2nc(N)nc(N3CCN(c4ccccc4)CC3)n2)cc1Cl [Compound 19, 2-{[4-Amino-6-(4-phenylpiperazin-1-yl)-1,3,5-triazin-2-yl]methylthio}-N-(1H-benzo[d]imidazol-2(3H)-ylidene)-4-chloro-5-methylbenzenesulfonamide]
IC50 ([1]; Homo sapiens, HeLa): 18 ± 1 µM | IC50 ([2]; Homo sapiens, HCT-116, 72 h): 15 ± 1 µM | IC50 [3]: 7 to 19 µM | IC50 ([4]; Homo sapiens, MCF7, 72 h): 19 ± 1 µM | IC50 [5]: 31 ± 1 µM

Cc1cc(S(=O)(=O)N=c2[nH]c3ccccc3[nH]2)c(SCc2nc(N)nc(N3CCN(c4ccc(Cl)cc4)CC3)n2)cc1Cl [Compound 23, 2-[{4-Amino-6-[4-(4-chlorophenyl)piperazin-1-yl]-1,3,5-triazin-2-yl}methylthio]-N-(1H-benzo[d]imidazol-2(3H)-ylidene)-4-chloro-5-methylbenzenesulfonamide]
IC50 ([1]; Homo sapiens, HeLa): 17 ± 1 µM | IC50 ([2]; Homo sapiens, HCT-116, 72 h): 16 ± 0.5 µM | IC50 [3]: 7 to 19 µM | IC50 ([4]; Homo sapiens, MCF7, 72 h): 17 ± 0.5 µM | IC50 [5]: 35 ± 1 µM

Cc1cc(S(=O)(=O)N=c2[nH]c3ccc(Cl)cc3[nH]2)c(SCc2nc(N)nc(N3CCN(c4ccc(C(F)(F)F)cc4)CC3)n2)cc1Cl [Compound 47, 2-{[4-Amino-6-{4-[4-(trifluoromethyl)phenyl]piperazin-1-yl}-1,3,5-triazin-2-yl]methylthio}-4-chloro-N-(5-chloro-1H-benzo[d]imidazol-2(3H)-ylidene)-5-methylbenzenesulfonamide]
IC50 ([1]; Homo sapiens, HeLa): 22 ± 1 µM | IC50 ([2]; Homo sapiens, HCT-116, 72 h): 21 ± 1 µM | IC50 ([4]; Homo sapiens, MCF7, 72 h): 24 ± 1 µM | IC50 [5]: 38 ± 1 µM

Cc1cc(S(=O)(=O)N=c2[nH]c3ccccc3[nH]2)c(SCc2nc(N)nc(Nc3ccc(Cl)cc3)n2)cc1Cl [Compound 13, 2-[{4-Amino-6-[(4-chlorophenyl)amino]-1,3,5-triazin-2-yl}metylthio]-N-(1H-benzo[d]imidazol-2(3H)-ylidene)-4-chloro-5-methylbenzenesulfonamide]
IC50 ([1]; Homo sapiens, HeLa): 35 ± 1 µM | IC50 ([2]; Homo sapiens, HCT-116, 72 h): 32 ± 1 µM | IC50 ([4]; Homo sapiens, MCF7, 72 h): 24 ± 1 µM | IC50 [5]: 41 ± 2 µM

Cc1cc(S(=O)(=O)N=c2[nH]c3ccccc3[nH]2)c(SCc2nc(N)nc(N(C)c3ccccc3)n2)cc1Cl [Compound 16, 2-[{4-Amino-6-[methyl(phenyl)amino]-1,3,5-triazin-2-yl}metylthio]-N-(1H-benzo[d]imidazol-2(3H)-ylidene)-4-chloro-5-methylbenzenesulfonamide]
IC50 ([1]; Homo sapiens, HeLa): 33 ± 1 µM | IC50 ([2]; Homo sapiens, HCT-116, 72 h): 33 ± 1 µM | IC50 ([4]; Homo sapiens, MCF7, 72 h): 32 ± 1 µM | IC50 [5]: 45 ± 2 µM

Cc1cc(S(=O)(=O)N=c2[nH]c3ccccc3[nH]2)c(SCc2nc(N)nc(N3CCCc4ccccc43)n2)cc1Cl [Compound 10, 2-{[4-Amino-6-(3,4-dihydroquinolin-1(2H)-yl)-1,3,5-triazin-2-yl]methylthio}-N-(1H-benzo[d]imidazol-2(3H)-ylidene)-4-chloro-5-methylbenzenesulfonamide]
IC50 ([1]; Homo sapiens, HeLa): 30 ± 1 µM | IC50 ([2]; Homo sapiens, HCT-116, 72 h): 32 ± 3 µM | IC50 ([4]; Homo sapiens, MCF7, 72 h): 25 ± 1 µM | IC50 [5]: 45 ± 2 µM

Cc1cc(S(=O)(=O)N=c2[nH]c3ccccc3[nH]2)c(SCc2nc(N)nc(N3CCN(S(=O)(=O)c4ccccc4)CC3)n2)cc1Cl [Compound 32, 2-[{4-Amino-6-[4-(phenylsulfonyl)piperazin-1-yl]-1,3,5-triazin-2-yl}methylthio]-N-(1H-benzo[d]imidazol-2(3H)-ylidene)-4-chloro-5-methylbenzenesulfonamide]
IC50 [3]: 137 to 280 µM | IC50 ([4]; Homo sapiens, MCF7, 72 h): > 100 µM | IC50 [4]: 137 ± 3 µM

CC1=NN(c2nc(N)nc(CSc3cc(Cl)c(C)cc3S(=O)(=O)N=c3[nH]c4ccccc4[nH]3)n2)C(C)(C)C1 [Compound 8, 2-{[4-Amino-6-(3,5,5-trimethyl-4,5-dihydro-1H-pyrazol-1-yl)-1,3,5-triazin-2-yl]metylthio}-N-(1H-benzo[d]imidazol-2(3H)-ylidene)-4-chloro-5-methylbenzenesulfonamide]
IC50 ([1]; Homo sapiens, HeLa): 31 ± 2 µM | IC50 ([2]; Homo sapiens, HCT-116, 72 h): 23 ± 1 µM | IC50 ([4]; Homo sapiens, MCF7, 72 h): 34 ± 2 µM | IC50 [5]: 43 ± 2 µM

CC1=NN(c2nc(N)nc(CSc3cc(Cl)c(C)cc3S(=O)(=O)N=c3[nH]c4ccc(Cl)cc4[nH]3)n2)C(C)(C)C1 [Compound 41, 2-{[4-Amino-6-(3,5,5-trimethyl-4,5-dihydro-1H-pyrazol-1-yl)-1,3,5-triazin-2-yl]metylthio}-4-chloro-N-(5-chloro-1H-benzo[d]imidazol-2(3H)-ylidene)-5-methylbenzenesulfonamide]
IC50 ([1]; Homo sapiens, HeLa): 30 ± 1 µM | IC50 ([2]; Homo sapiens, HCT-116, 72 h): 25 ± 1 µM | IC50 ([4]; Homo sapiens, MCF7, 72 h): 38 ± 2 µM | IC50 [5]: 49 ± 1 µM

Cc1cc(S(=O)(=O)N=c2[nH]c3ccccc3[nH]2)c(SCc2nc(N)nc(N3CCN(Cc4ccccc4)CC3)n2)cc1Cl [Compound 30, 2-{[4-Amino-6-(4-benzylpiperazin-1-yl)-1,3,5-triazin-2-yl]methylthio}-N-(1H-benzo[d]imidazol-2(3H)-ylidene)-4-chloro-5-methylbenzenesulfonamide]
IC50 ([1]; Homo sapiens, HeLa): 18 ± 1 µM | IC50 ([2]; Homo sapiens, HCT-116, 72 h): 17 ± 0.5 µM | IC50 ([4]; Homo sapiens, MCF7, 72 h): 24 ± 1 µM | IC50 [5]: 36 ± 2 µM

Cc1cc(S(=O)(=O)N=c2[nH]c3ccc(F)cc3[nH]2)c(SCc2nc(N)nc(N3CCN(c4ccc(Cl)c(Cl)c4)CC3)n2)cc1Cl [Compound 40, 2-[{4-Amino-6-[4-(3,4-dichlorophenyl)piperazin-1-yl]-1,3,5-triazin-2-yl}metylthio]-4-chloro-N-(5-fluoro-1H-benzo[d]imidazol-2(3H)-ylidene)-5-methylbenzenesulfonamide]
IC50 ([1]; Homo sapiens, HeLa): 18 ± 1 µM | IC50 ([2]; Homo sapiens, HCT-116, 72 h): 16 ± 1 µM | IC50 ([4]; Homo sapiens, MCF7, 72 h): 43 ± 1 µM | IC50 [5]: 46 ± 1 µM

Cc1cc(S(=O)(=O)N=c2[nH]c3ccc(F)cc3[nH]2)c(SCc2nc(N)nc(N3CCN(c4ccc(Cl)cc4)CC3)n2)cc1Cl [Compound 39, 2-[{4-Amino-6-[4-(4-chlorophenyl)piperazin-1-yl]-1,3,5-triazin-2-yl}metylthio]-4-chloro-N-(5-fluoro-1H-benzo[d]imidazol-2(3H)-ylidene)-5-methylbenzenesulfonamide]
IC50 ([1]; Homo sapiens, HeLa): 28 ± 2 µM | IC50 ([2]; Homo sapiens, HCT-116, 72 h): 35 ± 2 µM | IC50 ([4]; Homo sapiens, MCF7, 72 h): > 100 µM | IC50 [4]: 74 ± 2 µM | IC50 [5]: 76 ± 2 µM

COc1ccccc1N1CCN(c2nc(N)nc(CSc3cc(Cl)c(C)cc3S(=O)(=O)N=c3[nH]c4ccccc4[nH]3)n2)CC1 [Compound 28, 2-[{4-Amino-6-[4-(2-methoxyphenyl)piperazin-1-yl]-1,3,5-triazin-2-yl}metylthio]-N-(1H-benzo[d]imidazol-2(3H)-ylidene)-4-chloro-5-methylbenzenesulfonamide]
IC50 ([1]; Homo sapiens, HeLa): 24 ± 1 µM | IC50 ([2]; Homo sapiens, HCT-116, 72 h): 16 ± 1 µM | IC50 ([4]; Homo sapiens, MCF7, 72 h): 24 ± 1 µM | IC50 [5]: 35 ± 1 µM
